Assay results: US9612240B2, “Biomimetic chemical sensors using nanoelectronic readout of olfactory receptors” (The Trustees Of The University Of Pennsylvania, priority 2010, dated 2017)
Values joined by “and” are separate entries in the source; they are usually repeats but may differ in a detail not shown here. Equal entries are not always repeated. “Also recorded” adds a separate entry of the source. Where two headings read alike, the source gives them in different places.

How the values were obtained:
mOR203-1 [1] = settings: mOR203-1 expressed in HEK cells; cited from earlier work
mOR256-17 [2] = target: T1, mOR256-17 (Mus musculus, UniProt P23275); settings: cited from earlier work
T1 sequence (P23275 1-312): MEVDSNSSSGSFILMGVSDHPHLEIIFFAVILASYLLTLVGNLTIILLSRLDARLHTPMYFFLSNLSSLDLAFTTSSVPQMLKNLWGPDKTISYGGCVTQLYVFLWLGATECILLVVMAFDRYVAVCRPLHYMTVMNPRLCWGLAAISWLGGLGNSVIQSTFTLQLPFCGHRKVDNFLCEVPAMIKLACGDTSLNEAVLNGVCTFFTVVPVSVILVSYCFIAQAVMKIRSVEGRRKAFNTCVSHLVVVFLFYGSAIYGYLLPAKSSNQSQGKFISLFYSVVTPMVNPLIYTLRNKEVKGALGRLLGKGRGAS

mOR203-1 [3] = experiment: Vapor response of mOR-functionalized carbon nanotube transistor; settings: for NT device response: FIG. 12A
[4] = Control vapor response of bare nanotube devices and devices with Ni-NTA and empty digitonin micelles; settings: bare NT transistors and devices treated with Ni-NTA and empty digitonin micelles
mOR174-9 = target: T2, mOR174-9 (Mus musculus, UniProt Q920P2); experiment: Vapor response of mOR-functionalized carbon nanotube transistor
T2 sequence (Q920P2 1-313): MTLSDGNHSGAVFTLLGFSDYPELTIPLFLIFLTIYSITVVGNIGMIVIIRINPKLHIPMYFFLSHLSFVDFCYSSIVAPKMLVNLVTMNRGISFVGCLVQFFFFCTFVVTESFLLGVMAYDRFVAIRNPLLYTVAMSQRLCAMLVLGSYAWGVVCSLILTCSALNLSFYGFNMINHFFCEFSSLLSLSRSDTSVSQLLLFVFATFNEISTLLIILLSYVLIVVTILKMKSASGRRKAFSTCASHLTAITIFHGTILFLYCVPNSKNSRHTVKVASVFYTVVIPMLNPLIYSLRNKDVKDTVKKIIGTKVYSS

[5] = system: mouse olfactory receptor proteins (mORs); experiment: Vapor response of mOR-functionalized NT devices, mOR not specified; format: binding; settings: all three mORs
mOR256-17 [6] = target: T1, mOR256-17; experiment: Xenopus oocyte expression with robotic electrophysiology; settings: mOR 256-17
mOR256-17 [7] = target: T1, mOR256-17; experiment: Vapor response of mOR-functionalized carbon nanotube transistor, high-speed data acquisition; format: binding; parameters: made in house; host or cells: Sf9 insect cells (Bac-to-Bac, pFastBac HT, Invitrogen); settings: cyclohexanone 2250 ppm, mOR 256-17 in nanodiscs
[8] = mOR203-1 in digitonin micelles, single sensor, FIG. 4

Compound: CCCCCC(C)=O [2-heptanone]
- HEK data response (mOR203-1 [1]): strong response
- response of mOR256-17 according to published reports (mOR256-17 [2]): not
- NT device response with both packaging methods (mOR203-1 [3]; mOR 203-1, surfactant stabilized and nanodisc stabilized): expected response
- NT device response (mOR203-1 [3]; mOR203-1 in digitonin micelles): strong response
- change in conductance (mOR203-1 [3]; [8]): negative changes in conductance

Compound: C=CCc1ccc(O)c(OC)c1 [eugenol]
- response of control devices without mOR [4]: no change in conductance
- NT device response shared by both packaging methods (mOR174-9): expected response
- sensing response (change in device current) (mOR174-9): large positive responses; also recorded: large positive sensing response
- change in conductance (mOR203-1 [3]; [8]): positive changes in conductance

Compound: CCCCCOC(C)=O [n-amyl acetate]
- change in conductance (mOR203-1 [3]; [8]): negative changes in conductance

Compound: CC(=O)c1ccccc1 [acetophenone]
- HEK data response (mOR203-1 [1]): lack of response
- NT device response (mOR203-1 [3]; mOR203-1 in digitonin micelles): lack of response

Compound: CCCCCCC=O [heptanal]
- HEK data response (mOR203-1 [1]): lack of response
- response of mOR256-17 according to published reports (mOR256-17 [2]): not
- NT device response (mOR203-1 [3]; mOR203-1 in digitonin micelles): lack of response

Compound: O=C1CCCCC1 [cyclohexanone]
- response of the inventive devices [5]: strong response
- response of control devices without mOR [4]: small response
- oocyte measurement response, in words (mOR256-17 [6]): show a response
- NT device response shared by both packaging methods (mOR174-9; mOR 174-9, surfactant stabilized and nanodisc stabilized): response shared between the two packaging methods
- response time constant, first of double exponential fit (FIG. 11D) (mOR256-17 [7]): 2.06 ± 0.01 s
- response time constant, second of double exponential fit (FIG. 11D) (mOR256-17 [7]): 25.51 ± 0.04 s
- sensing response time constant, first of double exponential fit (FIG. 3) (mOR256-17 [7]): 9.1 s and 9.08 ± 0.04 s
- sensing response time constant, second of double exponential fit (FIG. 3) (mOR256-17 [7]): 41.2 s and 41.2 ± 0.4 s
- response of mOR256-17 according to published reports (mOR256-17 [2]): responds

Compound: COC(=O)c1ccccc1 [methyl benzoate]
- change in conductance (mOR203-1 [3]): no change in conductance
